Values quoted from earlier work as cited in patent US20240148037A1, “STEVIOL GLYCOSIDE FORMULATIONS FOR FOOD AND BEVERAGES” (SWEEGEN, INC., priority 2019, published 2024).

Conditions: relative to sucrose

Row | Molecule | times sweeter than sucrose
1 | C=C1C[C@@]23CC[C@H]4[C@@](C)(CCC[C@@]4(C)C(=O)O[C@@H]4O[C@H](CO)[C@@H](O)[C@H](O)[C@H]4O)[C@@H]2CC[C@]1(O[C@@H]1O[C@H](CO)[C@@H](O)[C@H](O)[C@H]1O[C@@H]1O[C@@H](C)[C@H](O)[C@@H](O)[C@H]1O)C3 [Dulcoside A] | about 30 times
2 | C=C1C[C@@]23CC[C@H]4[C@@](C)(CCC[C@@]4(C)C(=O)O[C@@H]4O[C@H](CO)[C@@H](O)[C@H](O)[C@H]4O)[C@@H]2CC[C@]1(O[C@@H]1O[C@H](CO)[C@@H](O)[C@H](O)[C@H]1O[C@@H]1O[C@H](CO)[C@@H](O)[C@H](O)[C@H]1O)C3 [stevioside] | 100-150 times
3 | Rebaudioside C | 40-60 times
